According to article PMC10445084, “Green synthesis, anti-proliferative evaluation, docking, and MD simulations studies of novel 2-piperazinyl quinoxaline derivatives using hercynite sulfaguanidine-SA as a highly efficient and reusable nanocatalyst” (RSC Advances, 2023):

Columns and labels:
[1] = test system: HFF (human foreskin fibroblasts) normal cells; assay: MTT cytotoxicity assay, HFF normal cells; format: cell-based; conditions: Fibroblast, 48 h incubation
Method: (§1) The tested cells were cultured in medium and dialyzed fetal bovine serum (FBS) and then as suspended germs in Minimum Essential Medium (MEM) were seeded into 96-well plates (at the density of 10 × 10^4 viable cells per well). After 24 h incubation in 5% CO2 at 37 °C and cell attachment. Then the evaluated compounds (at 0.1–250 μg ml^−1 concentrations) were added to the cultured cells and incubated for another 24/48 h.[18,19] After washing of the cell containing plates with […], 20 μl of fresh 4,5-(dimethylthiazol-2-yl)-2,5-diphenyl tetrazolium bromide (MTT) solution (5 mg ml^−1) was added to each well, and incubated with cells for additional 4 h in the same conditions. Then, the medium was discarded and approximately 70 μl of DMSO was used and the resulted solution was vigorously mixed to dissolve and remove the residual tetrazolium and purple formazan crystals in each well. Next, the absorbance of each well was measured at 492 nm and 630 nm (for absorbance of MTT formazan and the reference wavelength respectively) with an ELISA plate reader. Stock solutions of all the tested compounds were prepared in DMSO, while the final dilutions were made with distilled water in order to maintain a maximum concentration of 0.5% DMSO per well. All the evaluated compounds were also tested for cytotoxicity on HFF normal cells at the above-mentioned concentrations and in the same conditions and incubation periods of time. Curves were fit using Graph Pad Prism as described in the Methods section.[19]
(§2) All the evaluated N-Mannich bases (2a–2d, 3a–3h and 4a–4d) were investigated for anti-proliferative activity against two cancer cell lines, HCT116 (human colon cancer) and KOV3 (human ovarian carcinoma). HFF (human foreskin fibroblasts) normal cells were also tested to determine the selectivity of their cytotoxic effects in killing cancer over normal cells. […] After 24 and 48 h of incubation, cell viability was measured by the [3-(4,5-dimethylthiazol-2-yl)-2,5-diphenyltetrazolium bromide] (MTT) colorimetric assay.[34] At the end of each incubation period, the IC50 value and cell viability for each N-Mannich base were calculated in different concentrations (0.15–2.4 μM) and determined graphically as established in Fig. 3. […] A DMSO equivalent control (n = 2 ± SEM) was also included for each cell line tested. Standard graph was plotted by taking concentration of the drug in X axis and relative cell viability in Y axis (cell viability (%) = mean OD/control OD × 100%) in Graph Pad Prism 8.
(§3) 2.5. Biological evaluations: In vitro cytotoxicity
(§4) This rapid assay is based on the reduction of tetrazolium salt to dark blue formazan product by mitochondrial enzymes of living, not dead cells after 24 and 48h exposure of cells to tested compounds at different concentrations. DMSO (with the less concentration than 1%) was the solvent in this biological test. serial concentrations were made by diluting stock solution of each compound (50μM) with culture media (RPMI 1640). […]

SKOV3 = assay: MTT cytotoxicity assay, SKOV3 ovarian cancer cells; format: cell-based, human; conditions: 48 h incubation
Method: as §1, §2, §3, §4

HCT116 = assay: MTT cytotoxicity assay, HCT116 colon cancer cells; format: cell-based, human; conditions: 48 h incubation
Method: as §1, §2, §3, §4

HCT116 and SKOV3 = assay: MTT assay, statements pooled over both cancer cell lines; format: cell-based; conditions: Homo sapiens, read-out: IC50 on the tested cancer cell lines
Method: as §1, with “Then, the medium was discarded and approximately 70 μl of DMSO was used and the resulted solution was vigorously mixed to dissolve and remove the residual tetrazolium and purple formazan crystals in each well.” left out, “Stock solutions of all the tested compounds were prepared in DMSO, while the final dilutions were made with distilled water in order to maintain a maximum concentration of 0.5% DMSO per well.” left out, “Curves were fit using Graph Pad Prism as described in the Methods section.[19]” left out
All the evaluated N-Mannich bases (2a–2d, 3a–3h and 4a–4d) were investigated for anti-proliferative activity against two cancer cell lines, HCT116 (human colon cancer) and KOV3 (human ovarian carcinoma). […] After 24 and 48 h of incubation, cell viability was measured by the [3-(4,5-dimethylthiazol-2-yl)-2,5-diphenyltetrazolium bromide] […]

Row | SMILES | IC50 [1] [µM] | IC50 (SKOV3; Homo sapiens, SK-OV-3, 48 h) [µM] | IC50 (HCT116; Homo sapiens, HCT-116, 48 h) [µM] | IC50 (SKOV3) [µM] | IC50 (HCT116) [µM] | IC50 (HCT116 and SKOV3) [µM]
1 | Cc1ccc2c(c1)C(=NNC(N)=O)C(=O)N2CN1CCN(c2cnc3ccccc3n2)CC1 [3g, 2-(5-methyl-2-oxo-1-((4-(quinoxalin-2-yl)piperazin-1-yl)methyl)indolin-3-ylidene)hydrazine-1-carboxamide] | 22.8 | 3.25 | 2.92 |  |  | 
2 | NC(=S)N/N=C1/C(=O)N(CN2CCN(c3cnc4ccccc4n3)CC2)c2ccc(Cl)cc21 [3f, 2-(5-chloro-2-oxo-1-((4-(quinoxalin-2-yl)piperazin-1-yl)methyl)indolin-3-ylidene) hydrazine-1-carbothioamide] | 57.1 | 5.15 | 4.92 |  |  | 
3 | NC(=S)N/N=C1/C(=O)N(CN2CCN(c3cnc4ccccc4n3)CC2)c2ccccc21 [3b, 2-(2-oxo-1-((4-(quinoxalin-2-yl)piperazin-1-yl)methyl)indolin-3-ylidene) hydrazine-1-carbothioamide] | 24.6 | 3.38 | 3.03 |  |  | 
4 | NC(=S)N/N=C1/C(=O)N(CN2CCN(c3cnc4ccccc4n3)CC2)c2ccc(Br)cc21 [3d, 2-(5-bromo-2-oxo-1-((4-(quinoxalin-2-yl)piperazin-1-yl)methyl)indolin-3-ylidene) hydrazine-1-carbothioamide] | 49.6 | 5.03 | 4.85 |  |  | 
5 | NC(=O)NN=C1C(=O)N(CN2CCN(c3cnc4ccccc4n3)CC2)c2ccccc21 [3a, 2-(2-oxo-1-((4-(quinoxalin-2-yl)piperazin-1-yl)methyl)indolin-3-ylidene) hydrazine-1-carboxamide] | 13.5 | 2.21 | 1.99 |  |  | 
6 | O=C1C(=O)N(CN2CCN(c3cnc4ccccc4n3)CC2)c2ccc(Br)cc21 [2b, 5-bromo-1-((4-(quinoxalin-2-yl)piperazin-1-yl)methyl) indoline-2,3-dione] | 58.1 | 5.43 | 5.12 |  |  | 
7 | CN(C)C(=N)NC(=N)/N=C1/C(=O)N(CN2CCN(c3cnc4ccccc4n3)CC2)c2ccc(Br)cc21 [4b, N′-[4-(quinoxaline-2-yl)-piperazine-1-yl]methyl-5-bromo-1-H-indole,2,3-dion-3-metformin] | 6.95 | 0.48 | 0.45 | 0.488 | 0.458 | < 1
8 | CN(C)C(=N)NC(=N)/N=C1/C(=O)N(CN2CCN(c3cnc4ccccc4n3)CC2)c2ccc(Cl)cc21 [4c, N′-[4-(quinoxaline-2-yl)-piperazine-1-yl]methyl-5-chloro-1-H-indole,2,3-dion-3-metformin] | 6.81 | 0.44 | 0.39 | 0.44 | 0.392 | < 1
9 | NC(=O)N/N=C1/C(=O)N(CN2CCN(c3cnc4ccccc4n3)CC2)c2ccc(Br)cc21 [3c, 2-(5-bromo-2-oxo-1-((4-(quinoxalin-2-yl)piperazin-1-yl)methyl)indolin-3-ylidene) hydrazine-1-carboxamide] | 35.9 | 3.52 | 3.35 |  |  | 
10 | Cc1ccc2c(c1)/C(=N\C(=N)NC(=N)N(C)C)C(=O)N2CN1CCN(c2cnc3ccccc3n2)CC1 [4d] | 10 | 1.72 | 1.54 |  |  | 
11 | CN(C)C(=N)NC(=N)N=C1C(=O)N(CN2CCN(c3cnc4ccccc4n3)CC2)c2ccccc21 [4a, N’-[4-(quinoxaline-2-yl)-piperazine-1-yl]methyl-1-H-indole,2,3-dion-3-metformin] | 9.11 | 1.51 | 1.23 |  |  | 
12 | Cc1ccc2c(c1)/C(=N\NC(N)=S)C(=O)N2CN1CCN(c2cnc3ccccc3n2)CC1 [3h, 2-(5-methyl-2-oxo-1-((4-(quinoxalin-2-yl)piperazin-1-yl)methyl)indolin-3-ylidene) hydrazine-1-carbothioamide] | 26.6 | 3.46 | 3.23 |  |  | 
13 | Cc1ccc2c(c1)C(=O)C(=O)N2CN1CCN(c2cnc3ccccc3n2)CC1 [2d, 5-methyl-1-((4-(quinoxalin-2-yl)piperazin-1-yl)methyl) indoline-2,3-dione] | 58.1 | 5.3 | 5 |  |  | 
14 | O=C1C(=O)N(CN2CCN(c3cnc4ccccc4n3)CC2)c2ccc(Cl)cc21 [2c, 5-chloro-1-((4-(quinoxalin-2-yl)piperazin-1-yl)methyl) indoline-2,3-dione] | 82 | 6.49 | 6.06 |  |  | 
15 | NC(=O)N/N=C1/C(=O)N(CN2CCN(c3cnc4ccccc4n3)CC2)c2ccc(Cl)cc21 [3e, 2-(5-chloro-2-oxo-1-((4-(quinoxalin-2-yl)piperazin-1-yl)methyl)indolin-3-ylidene) hydrazine-1-carboxamide] | 37.6 | 4.96 | 4.3 |  |  | 
16 | O=C1C(=O)N(CN2CCN(c3cnc4ccccc4n3)CC2)c2ccccc21 [2a, 1-((4-(quinoxalin-2-yl)piperazin-1-yl)methyl) indoline-2,3-dione] | 83.6 | 7.67 | 7.03 |  |  | 
